Measurements from US20120270928A1, “MICRORNA COMPOUNDS AND METHODS FOR MODULATING MIR-21 ACTIVITY” (REGULUS THERAPEUTICS INC., priority 2011, published 2012).
“And” between values parts separate entries of the source, which are not always exact repeats. Equal entries are not always repeated.

What was measured:
[1] = system: ischemia reperfusion injury/nephrectomy (IR/Nx) model; assay: Ischemia reperfusion injury/nephrectomy (IR/Nx) model: urinary albumin to creatinine ratio; assay type: in vivo, mouse; details: 20 mg/kg subcutaneously on days 2, 3, 4, and 8, urine on day 9
From the text: An ischemia reperfusion injury/nephrectomy (IR/Nx) model is created in the mouse through temporary unilateral clamping of an artery in one kidney, which leads to tubule damage, inflammation, and fibrosis, followed by removal of the second kidney at a later timepoint. In this model, the acute kidney dysfunction phase is useful to test candidate agents for the treatment of acute kidney injury (i.e. up to about the first 5 days), and the later phases of kidney dysfunction are useful to model chronic fibrosis (i.e. after about the first 5 days).
Unilateral IR was induced for a period of 30 minutes. Treatment groups were as follows: sham IR procedure; IR with PBS administered subcutaneously; IR with mismatched control 25109 administered subcutaneously at a dose of 20 mg/kg; IR with anti-miR-21 compound 25070 administered subcutaneously at a dose of 20 mg/kg; and IR with anti-miR-21 compound 25923 administered subcutaneously at a dose of 20 mg/kg. PBS or anti-miR was administered on days 2, 3, 4, and 8 following IR. On day 8, the healthy kidney was removed by nephrectomy from each animal, and animals were sacrificed on day 9. Just prior to sacrifice, urine was collected by direct bladder puncture.
Urinary albumin to creatinine ratio was measured in the urine from each mouse. […] The geometric mean of the albumin to creatinine ratio in each group of mice was 16 μgAlb/mgCr (nephrectomy-only control), 127 μgAlb/mgCr (IR/Nx, PBS control), 140 μgAlb/mgCr (IR/Nx, 25109 control), 40 μgAlb/mgCr (IR/Nx, 25070), and 31 μgAlb/mgCr (IR/Nx, 25923). Blood urea nitrogen and serum creatinine levels were similar across all IR/Nx mice, and were elevated relative to nephrectomy-only control mice (data not shown).

[2] = system: miR-21; assay: miR-21 luciferase sensor assay in Hela cells; assay type: cell-based; details: Hela cells
Procedure: The compounds were assessed for miR-21 inhibitory activity in a luciferase assay. A microRNA luciferase sensor construct was engineered using pGL3-MCS2 (Promega). The construct was introduced into Hela cells to test the ability of anti-miR compounds to inhibit activity of miR-21. In this assay, miR-21 present in the Hela cells binds to its cognate site(s) in the luciferase sensor construct, and suppresses luciferase expression. When the appropriate anti-miR is introduced into the cells, it binds to miR-21 and relieves suppression of luciferase expression. Thus, in this assay anti-miRs that are effective inhibitors of miR-21 expression will cause an increase in luciferase expression.
Hela cells (ATCC), stably transfected with a luciferase construct engineered to contain a sequence complementary of miR-21, were seeded in T-170 flasks (BD Falcon) at 3.5*10^6 cells/flask. Hela cells were grown in Dulbecco's Modified Eagle Medium with High Glucose (Invitrogen).
Each flask of Hela cells was transfected with 0.5 ug of a phRL sensor plasmid (Promega) expressing Renilla to be used in normalization. Hela cells were transfected using 20 ul Lipofectamine 2000/flask (Invitrogen). After 4 hours of transfection, cells were washed with PBS and trypsinized Hela cells were plated at 40 k/well in 24 well plates (BD Falcon) and left overnight.
Hela cells were transfected with anti-miRs using Lipofectin (Invitrogen) at 2.5 ul Lipofectin/100 nM ASO/ml Opti-MEM I Reduced Serum Medium (Invitrogen) for 4 hours. After ASO transfection, Hela cells were refed with Dulbecco's Modified Eagle Medium with High Glucose (Invitrogen).
Hela cells are passively lysed and luciferase activity measured using the Dual-Luciferase Reporter Assay System (Promega).
The luciferase assay was performed to test the ability of anti-miRs with the nucleoside patterns described herein to inhibit the activity of miR-21. Results were compared to a ‘mock’ treatment, in which cells received no anti-miR treatment. The experiment was repeated and results of two experimental replicates are shown in the following Table B, as the luciferase value normalized to beta-galactosidase activity.
The luciferase assay was performed as described herein to test the ability of anti-miRs in Table F to inhibit the activity of miR-21. Results were compared to a ‘mock’ treatment, in which cells received no anti-miR treatment. The experiment was repeated and results of two experimental replicates are shown in the following Table D, as fold change in luciferase value relative to the mock treatment.

[3] = system: UUO model of kidney fibrosis; assay: Unilateral ureteral obstruction (UUO) model of kidney fibrosis: kidney collagen 1A1 and collagen 3A1 expression by real-time PCR; assay type: in vivo, mice; details: for Collagen 3A1 (Normalized Expression) Mean / Collagen 1A1 (Normalized Expression) Mean / Collagen 1A1 (Normalized Expression) / Collagen 3A1 (Normalized Expression): Table K, UUO mice, kidney at day 11; for Collagen 3A1 (Normalized Expression) Mean / Collagen 1A1 (Normalized Expression) Mean: group mean; for Collagen 3A1 (Normalized Expression) Mean / Collagen 1A1 (Normalized Expression) Mean / reduction in collagen expression (in words): 20 mg/kg at days -3, -1, +5; for Collagen 3A1 (Normalized Expression) Mean: UUO-PBS mean 87.2; for Collagen 1A1 (Normalized Expression) Mean: UUO-PBS mean 114.9; for Collagen 1A1 (Normalized Expression) / Collagen 3A1 (Normalized Expression): individual animals, 20 mg/kg at days -3, -1, +5 (prophylactic), real-time PCR normalized to GAPDH then sham, 20 mg/kg; for reduction in collagen expression (in words): meta-analysis of UUO studies
Procedure: Unilateral ureteral obstruction (UUO) is a well-established experimental model of renal injury leading to interstitial fibrosis, and thus is used as an experimental model that is reflective of human kidney disease. UUO is induced by surgically ligating a single ureter. As fibrosis is characterized by an increase in collagen, the presence and extent of kidney fibrosis may be determined by measuring collagen content. Both collagen 1A1 (Col 1A1) and collagen 3A1 (Col 3A1) are measured to assess collagen content. Kidney fibrosis may be visualized by staining tissue samples with picro-sirius red to detect increases in collagen content. Kidney fibrosis may also be observed by measuring the amount of hydroxyproline, which is a major component of collagen, in a sample.
The cEt-containing anti-miR-21 compounds found to be active in the luciferase assay were tested in the UUO model of kidney fibrosis. 25919 comprising 2′-MOE and 2′-fluoro modifications is known to inhibit miR-21 activity in vivo and was included as a positive control. Groups of 8 animals each were treated as follows: UUO only, UUO with PBS, or UUO with anti-miR-21 compound. Relative to the day of the UUO procedure, PBS or anti-miR-21 compound was administered at days −3, −1, and +5. Anti-miR-21 compounds were administered at a dose of 20 mg/kg. As the anti-miR compounds were administered prior to the UUO procedure, this dosing regimen is considered a prophylactic treatment. At day 11, animals were sacrificed and kidney was isolated for measurement of collagen expression. Collagen expression was measured by real-time PCR and normalized first to GAPDH and then to the sham control animals.
The UUO study was repeated to confirm the activity of 25070. The anti-miR was administered subcutaneously at a dose of 20 mg/kg.
Control treatment groups included UUO only (sham) and UUO with PBS administered subcutaneously. An additional control group included UUO with Tween-MC/20 carrier perorally. 25070 administered subcutaneously at dose of 20 mg/kg at 5 days prior to, 2 days prior to, and 3 days after, the UUO procedure. Irbesartan was administered perorally on daily on days 0 through 7 following the UUO procedure. Animals were sacrificed on Day 10 following the UUO procedure. Kidney tissue was collected for measurement of collagen 1A1 and collagen 3A1 expression.
Compounds 25220 and 25221, as well as 25923, were tested in the UUO model for their effects on fibrosis. Groups of 8 animals each were treated as follows: sham surgery, UUO with PBS, UUO with 25220, UUO with 25221, or UUO with 25923. Relative to the day of the UUO procedure, PBS or anti-miR-21 compound was administered at days −5, −3, and +3. Anti-miR-21 compounds were administered at a dose of 20 mg/kg. As the anti-miR compounds were administered prior to the UUO procedure, this dosing regimen is considered a prophylactic treatment. At day 10, animals were sacrificed and kidney was isolated for measurement of collagen expression. Collagen expression was measured by real-time PCR and normalized to GAPDH.

[4] = Ex vivo liver homogenate stability assay (HPLC-TOF MS); details: 24 hours at 37° C.; for ex vivo (liver) N %↓: full-length compound; for ex vivo (liver) % Endo / ex vivo (liver) % N − 1: 5 μM oligonucleotide in liver homogenate; for ex vivo (liver) % N − 1: compound lacking the 3′-terminal nucleoside
[5] = In vivo stability of compound in kidney tissue after administration to mice; details: kidney tissue after administration; for in vivo (kidney) N − 1 (%): compound lacking the 3′-terminal nucleoside; for in vivo (kidney) N (%): full-length compound
[6] = 500 nM oligonucleotide, two experimental replicates
[7] = 5 μM oligonucleotide in liver homogenate (50 mg tissue per ml)

Row | Substance | geometric mean of the urinary albumin to creatinine ratio [1] [μgAlb/mgCr] | luciferase value normalized to beta-galactosidase activity ([2]; 4 nM oligonucleotide) | luciferase value normalized to beta-galactosidase activity ([2]; 20 nM oligonucleotide) | luciferase value normalized to beta-galactosidase activity ([2]; 100 nM oligonucleotide) | luciferase value normalized to beta-galactosidase activity [2, 6] | luciferase value normalized to beta-galactosidase activity ([2]; .16 nM oligonucleotide) | luciferase value normalized to beta-galactosidase activity ([2]; .8 nM oligonucleotide) | inhibition of miR-21 activity in the luciferase assay (in words) [2] | Collagen 3A1 (Normalized Expression) Mean [3] | Collagen 1A1 (Normalized Expression) Mean [3] | Collagen 1A1 (Normalized Expression) [3] | Collagen 3A1 (Normalized Expression) [3] | reduction in collagen expression (in words) [3] | compound lacking the 3′-terminal nucleoside [4, 7] | compound present as the full-length compound [4, 7] | ex vivo (liver) N %↓ [4, 7] [%] | ex vivo (liver) % Endo [4] | ex vivo (liver) % N − 1 [4] [%] | in vivo (kidney) N − 1 (%) [5] [%] | in vivo (kidney) N (%) [5] [%]
1 | AEASATCSTGTCSTCAUSAATASAAE [Compound 25109, reference compound] | 140 | – | – | – | – | – | – | – | – | – | – | – | – | – | – | – | – | – | – | –
2 | AECSAETECSAEGETECSTEGEAEUSAEAEGECSTEAE (ACATCAGTCTGATAAGCTA; anti-miR; sugar and backbone modifications, code letters not given here, further chemistry not given here) [Compound 25072] | – | 76 | 86 | 115 | 143 | 40 | 49 | inhibition of miR-21 in a dose-dependent manner | 65.5 | 113.8 | 96.2 and 85.7 and 127.4 and 100.0 and 159.2 and 120.5 and 108.0 | 69.4 and 54.5 and 58.8 and 69.2 and 93.8 and 65.8 and 46.9 | did not consistently demonstrate a reduction in collagen expression | – | – | – | – | – | – | –
3 | AECSATCSAGTCSTGAUSAAGCSTAS (antisense ACATCAGTCTGATAAGCTA; cEt and 2'-MOE nucleosides) [Compound 25923] | – | – | – | – | – | – | – | – | – | – | – | – | – | about 18% | About 68% | 17 | 2-3% | 13 | 14 ± 5 | 58 ± 3
4 | AECSATCSAGTCSTGAUSAAGCSUsAS (ACATCAGTCTGATAAGCTA; sugar and backbone modifications) [Compound 25221] | – | – | – | – | – | – | – | – | – | – | – | – | – | – | – | 3 | 3% | 0 | 4 ± 1 | 76 ± 4
5 | AECSATCSASGTCSUSGAUSASAGCSUsAE (ACATCAGTCTGATAAGCTA; sugar and backbone modifications) [Compound 25220] | – | – | – | – | – | – | – | – | – | – | – | – | – | – | – | 3 | 3% | 0 | 16 ± 6 | 67 ± 16
6 | TE^MeCAACSATCSAGTCSTGAUSAAGCSTAE (TCAACATCAGTCTGATAAGCTA; modified nucleosides with 5-methyl C, code letters not given here, further chemistry not given here) [Compound 25082] | – | 112 | 147 | 176 | 202 | 70 | 89 | inhibition of miR-21 in a dose-dependent manner | 59.1 | 91.7 | 122.2 and 188.3 and 102.5 and 67.6 and 40.6 and 44.1 and 73.8 and 94.7 | 62.9 and 78.9 and 82.2 and 43.8 and 32.6 and 34.3 and 75.8 and 62.5 | did not consistently demonstrate a reduction in collagen expression | – | – | – | – | – | – | –
7 | TE^MeCEAEAECSAETECSAEGETECSTEGEAEUSAEAEGECSTEAE (TCAACATCAGTCTGATAAGCTA; modified nucleosides and phosphorothioate, code letters not given here, further chemistry not given here) [Compound 25068] | – | 64 | 86 | 97 | 122 | 45 | 54 | inhibition of miR-21 in a dose-dependent manner | 60.6 | 96.4 | 84.7 and 75.1 and 85.5 and 89.1 and 90.4 and 125.8 and 124.4 | 64.8 and 56.2 and 47.4 and 76.2 and 57.0 and 63.0 and 59.6 | active in reducing collagen expression, but to a lesser extent than 25070 | – | – | – | – | – | – | –
